Experiments:
[1] = In vitro DTX release and release model fitting; format: physicochemical
Excerpt: Error bar represents Mean ± S.D. of three experiments.
To further probe into the release mechanism, different mathematical models were applied to the dissolution data.

[2] = Biocompatibility, trypan blue assay; format: cell-based; details: fresh human macrophages isolated from blood
Experimental: The biocompatibility of the NCs and DTX-Ag-NCPs was assessed against the fresh human macrophages. The macrophages were isolated from fresh human blood using Ficoll-Gastrografin gradient method.^6 Macrophages were suspended in RPMI media and incubated in CO2 incubator.

[3] = Oral bioavailability and pharmacokinetics; format: in vivo, rabbits; details: rabbit
Experimental: All the animal studies were conducted in compliance to the approved protocol of Bio-Ethical Committee of Quaid-i-Azam University Islamabad, Pakistan (Protocol No. BEC-FBS-QAU-20). Oral bioavailability studies of NCs were conducted in rabbits. The rabbits were divided into 3 groups (n=5) and kept in the animal house with free access to food and water. […] The samples (10mg/kg) were orally administered through gavage needle. Blood samples were withdrawn from ear marginal vein of each rabbit at predefined time interval using 1 ml sterile syringe each time. The plasma was separated from blood samples and stored at -20 °C till further used for analysis.^7,8 The drug was extracted from plasma samples and was analyzed using HPLC method described earlier.

[4] = test system: Swiss albino mice; details: mouse, in vivo
Experimental: After 14 days, the complete blood count (CBC) was performed on blood and plasma was carefully collected and LFTs, RFTs, glucose, total protein and cholesterol were analyzed.

[5] = test system: Swiss albino mice; details: mouse, in vivo, po, 10 mg/kg
Experimental: (§1) Female Swiss albino mice weighing 32 ± 5 g, were divided into 4 groups (n = 5) and were kept to free access of food and water at controlled environment. […] The dose (10 mg/kg) was administered orally through gavage. […] After 14 days, the blood was withdrawn for serum biochemistry analysis and mice were sacrificed for tissue histology studies[49].

[6] = rabbit, in vivo, cited from earlier work
[7] = test system: breast cancer (MDA-MB-231) cell line; assay: Cytotoxic synergism study, MTT assay; details: MDA-MB-231, MTT, 24 h
Experimental: The cells were seeded in 96-well plate having 6000 cells/well in fetal bovine serum supplemented Dulbecco’s Modified Eagles Medium (DMEM/FBS) solution. […] Untreated cells with 100% viability were taken as control and the cells without addition of MTT were used as blank to calibrate the instrument. IC50 values for each formulation was calculated using Graphpad Prism 6.02 software[19].

[8] = test system: Swiss albino mice; assay: Acute oral toxicity (OECD 425), observation; details: 10 mg/kg, 14 days
Experimental: as §1

[9] = model fitted to dissolution data

CC(=O)O[C@@]12CO[C@@H]1C[C@H](O)[C@@]1(C)C(=O)[C@H](O)C3=C(C)[C@@H](OC(=O)[C@H](O)[C@@H](NC(=O)OC(C)(C)C)c4ccccc4)C[C@@](O)([C@@H](OC(=O)c4ccccc4)[C@H]21)C3(C)C [DTX, Docetaxel]
Cumulative DTX release ([1]; 24 h, phosphate buffer, 37 °C): about 53%
Higuchi KH [1, 9]: 10.98
Hixon-Crowell KHC [1, 9]: 0.01
Korsmeyer-Peppas N (release exponent) [1, 9]: 0.56
Zero Order Ko [1, 9]: 3.06
viability at 24 h, 50 µg/ml [2]: ~65%
Cmax ([3]; plasma, 10 mg/kg): 41.8 ng/mL
Tmax ([3]; plasma, 10 mg/kg): 5 h
AUC(0-t) ([3]; plasma, 10 mg/kg, read-out: AUC0–24): 441 ng·h/mL
MRT inf ([3]; plasma, 10 mg/kg, read-out: MRT0-inf_obs): 26.2 h
AUMC0-inf_obs ([3]; 10 mg/kg): 19100.51 ng/ml*h^2
Cl/F_obs ([3]; 10 mg/kg): 0.014 (mg)/(ng/ml)/h
t1/2 ([3]; 10 mg/kg, plasma): 18.039 h
Time plasma level remained above minimum effective concentration / within therapeutic window ([3]; MEC 35 ng/mL): 3 h
half-life ([3]; plasma, po, 10 mg/kg): 18 h
F ([3]; relative to DTX control): 1
Hb [4]: 13.20 ± 6.37
MCH [4]: 15.54 ± 4.35
MCV [4]: 57.57 ± 5.52
MPV [4]: 7.11 ± 4.91
PCV [4]: 54.37 ± 11.93
Platelets [4]: 632 ± 87.57
RBC [4]: 6.86 ± 4.91
RDW % [4]: 16.92 ± 6.63%
Serum glutamic pyruvic transaminase (SGPT) [4]: highest level
WBC [4]: 12.45 ± 7.63
Visible changes in skin, fur or behavioral pattern [5]: no visible changes
Minimum toxic concentration ([6]; iv): 2700 ng/mL
Minimum effective concentration [6]: 35 ng/mL
IC50 [7]: 14.32 µg/mL
Mortality and change in body weights [8]: No mortality and significant change in body weights

Source: PMC6127092, “Polymeric nanocapsules embedded with ultra-small silver nanoclusters for synergistic pharmacology and improved oral delivery of Docetaxel” (Scientific Reports, 2018)
